Measurements taken from patent publication US20260285850A1, “SUBSTITUTED OXAZOLIDINONES AND IMIDAZOLINONES AS HERBICIDES” (FMC CORPORATION, priority 2023, published 2026).

How the values were obtained:
Type in all cases: in vivo
[1] = tested on: barnyardgrass (Echinochloa crus-galli); test: Test A preemergence soil spray, visual injury rating 0-100; conditions: 1000 g ai/ha, 10 days, 0 = no effect, 100 = complete control
In short: (§1)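 Directed preemergence spray onto seeded soil or postemergence spray onto 2-10 cm plants (loam plus sand); compound carried in surfactant-containing non-phytotoxic solvent. Injury rated by eye after 10 d greenhouse growth; 0 = no effect, 100 = complete control.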

[2] = tested on: blackgrass (Alopecurus myosuroides); test: as above; conditions: 1000 g ai/ha, 10 days, 0 = no effect, 100 = complete control
In short: as §1

[3] = tested on: foxtail, giant (giant foxtail, Setaria faberi); test: as above; conditions: 1000 g ai/ha, 10 days, 0 = no effect, 100 = complete control
In short: as §1

[4] = tested on: kochia (Bassia scoparia); test: as above; conditions: 1000 g ai/ha, 10 days, 0 = no effect, 100 = complete control
In short: as §1

[5] = tested on: palmer (palmer amaranth, palmer pigweed, Amaranthus palmeri); test: as above; conditions: 1000 g ai/ha, 10 days, 0 = no effect, 100 = complete control
In short: as §1

[6] = tested on: ragweed (common ragweed, Ambrosia artemisiifolia); test: as above; conditions: 1000 g ai/ha, 10 days, 0 = no effect, 100 = complete control
In short: as §1

[7] = tested on: ryegrass, Italian (italian ryegrass, Lolium multiflorum); test: as above; conditions: 1000 g ai/ha, 10 days, 0 = no effect, 100 = complete control
In short: as §1

[8] = tested on: barnyardgrass (Echinochloa crus-galli); test: Test A postemergence application, visual injury rating 0-100; conditions: Postemergence, 1000 g ai/ha, 0 to 100 scale, 10 days
In short: as §1

[9] = tested on: blackgrass (Alopecurus myosuroides); test: as above; conditions: Postemergence, 1000 g ai/ha, 0 to 100 scale, 10 days
In short: as §1

[10] = tested on: foxtail, giant (giant foxtail, Setaria faberi); test: as above; conditions: 1000 g ai/ha, 0 to 100 scale, 10 days
In short: as §1

[11] = tested on: galium (catchweed bedstraw, Galium aparine); test: as above; conditions: Postemergence, 1000 g ai/ha, 0 to 100 scale, 10 days
In short: as §1

[12] = tested on: horseweed (Erigeron canadensis); test: as above; conditions: Postemergence, 1000 g ai/ha, 0 to 100 scale, 10 days
In short: as §1

[13] = tested on: kochia (Bassia scoparia); test: as above; conditions: Postemergence, 1000 g ai/ha, 0 to 100 scale, 10 days
In short: as §1

[14] = tested on: palmer (palmer amaranth, palmer pigweed, Amaranthus palmeri); test: as above; conditions: Postemergence, 1000 g ai/ha, 0 to 100 scale, 10 days
In short: as §1

[15] = tested on: ragweed (common ragweed, Ambrosia artemisiifolia); test: as above; conditions: Postemergence, 1000 g ai/ha, 0 to 100 scale, 10 days
In short: as §1

[16] = tested on: ryegrass, Italian (italian ryegrass, Lolium multiflorum); test: as above; conditions: Postemergence, 1000 g ai/ha, 0 to 100 scale, 10 days
In short: as §1

[17] = tested on: barnyardgrass (Echinochloa crusgalli); test: Test B flooded paddy test, visual plant response rating 0-100; conditions: 250 g ai/ha, Flood, applied to paddy water, evaluated after 13 days
In short: (§2)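 Compounds applied to standing paddy water (3 cm above soil, maintained for the test duration) on 2-leaf-stage plants; visual rating vs controls at 13 days, greenhouse.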

[18] = tested on: ducksalad (Heteranthera limosa); test: as above; conditions: 250 g ai/ha, Flood, applied to paddy water, evaluated after 13 days
In short: as §2

[19] = tested on: rice (Oryza sativa); test: as above; conditions: 250 g ai/ha, Flood, applied to paddy water, evaluated after 13 days
In short: as §2

[20] = tested on: sedge, umbrella (small-flower umbrella sedge, Cyperus difformis); test: as above; conditions: 250 g ai/ha, Flood, applied to paddy water, evaluated after 13 days
In short: as §2

| SMILES | Barnyardgrass plant response rating (0 to 100 scale) [1] | Blackgrass plant response rating (0 to 100 scale) [2] | Foxtail, Giant plant response rating (0 to 100 scale) [3] | Kochia plant response rating (0 to 100 scale) [4] | Amaranth, Palmer / Pigweed, Palmer plant response rating (0 to 100 scale) [5] | Ragweed plant response rating (0 to 100 scale) [6] | Ryegrass, Italian plant response rating (0 to 100 scale) [7] | Barnyardgrass plant response rating [8] | Blackgrass plant response rating [9] | Foxtail, Giant plant response rating [10] | Galium plant response rating [11] | Horseweed plant response rating [12] | Kochia plant response rating [13] | Amaranth, Palmer plant response rating [14] | Ragweed plant response rating [15] | Ryegrass, Italian plant response rating [16] | Plant response rating, Barnyardgrass (0 to 100 scale, 0 is no effect and 100 is complete control) [17] | Plant response rating, Ducksalad (0 to 100 scale, 0 is no effect and 100 is complete control) [18] | Plant response rating, Rice (0 to 100 scale, 0 is no effect and 100 is complete control) [19] | Plant response rating, Sedge, Umbrella (0 to 100 scale, 0 is no effect and 100 is complete control) [20] |
| --- | --- | --- | --- | --- | --- | --- | --- | --- | --- | --- | --- | --- | --- | --- | --- | --- | --- | --- | --- | --- |
| CCCS(=O)(=O)NC(=O)C1C=CC(NC(=O)C2(C)CN(c3cc(F)cc(F)c3)C(=O)O2)C1 (stereo not shown) [Compound 50] | 90 | 90 | 90 | 100 | 100 | 50 | 100 | 90 | 90 | 90 | 80 | 70 | 70 | 90 | 70 | 100 | 60 | 70 | 75 | 60 |
| CC(C)OC(=O)C1C=CC(NC(=O)C2(C)CN(c3cc(F)cc(F)c3)C(=O)O2)C1 (stereo not shown) [Compound 52] | 100 | 90 | 100 | 100 | 100 | 90 | 100 | 100 | 90 | 90 | 80 | 100 | 70 | 90 | 70 | 60 | 75 | 60 | 65 | 90 |
